Test results as given in US5707833A, “Process of making cyclodextrin glucanotransferase with brevibacterium” (priority 1993, dated 1998).
Where two headings read alike, the source gives them in different places.

System: cyclodextrin glucanotransferase (γ-CGTase, EC 2.4.1.19) of Brevibacterium sp. No. 9605
Assay type: biochemical
Procedure: (8) Activity measurement: In the measurements of the enzlanological properties described above, enzyme activity was measured by the following method. A 0.05 ml portion of an aqueous solution of the enzyme was added to 0.5 ml of a substrate solution (1.5% by weight soluble starch in 0.1M Atkins & Pantin buffer, pH 10.0) and incubated at 40° C. for 30 minutes. After adding 5 ml of 0.1N hydrochloric acid to terminate the reaction, a 0.5 ml portion of the reaction mixture was taken out and mixed with 5 ml of an iodine solution (0.005% iodine in 0.05% potassium iodide solution) to measure decrease in the absorbance at […]. One unit of the activity was defined as the amount of enzyme which decreases 1% of the absorbance at 660 nm within 1 minute under these conditions.

[1] = enzyme treated with 1 mM inhibitor at 40° C. for 10 minutes in 0.1M H3BO3·KCl-NaOH buffer (pH 8.0), control 100, activity on soluble starch, iodine method

SMILES	Residual Activity (%) [1] [%]	Residual Activity (%) (pH 8)
CCN1C(=O)C=CC1=O [NEM, N-ethylmaleimide]	84	–
O=C(O)c1cc[c]([Hg][Cl])cc1 [PCMB, p-chloromercuribenzoic acid]	83	–
O=C(O)CI [MIA, monoiodoacetic acid]	–	82
